We go through 1 compound from patent publication US9636324B2, “Use of 15-benzylidence-14-deoxy-11, 12 -dehyroandrographolide derivative in manufacture of medicaments for protecting liver and anti-hepatitis C virus” (Zhengzhou University, priority 2012, dated 2017).

In series [1] the test system is bovine viral diarrhea virus (BVDV-AV69). Nature of the series: CPE observation of effects on cytopathy caused by BVDV in MDBK cells.
In series [2] the test system is mice with ethanol induced liver damage. Nature of the series: Ethanol induced liver damage model in mice. It counts as in vivo, Kunming mice. As to the method: Kunming mice of clean grade (male, weight 20±2 g), after adaptively fed for 3 days, are randomly divided into normal group, model group, bifendate positive control group (200 mg/kg), AD group (0.88 mmol/kg), low (0.44 mmol/kg), median (0.66 mmol/kg) and high (0.88 mmol/kg) dosage groups of compound A, and median (0.66 mmol/kg) and high (0.88 mmol/kg) dosage groups of compound B, with 8 mice in each group. Positive group and each test group are intragastrically given with respective suspension prepared with 0.5% CMC-Na, and normal group and model group are given with 0.5% CMC-Na. The drugs are given for 3 days, and 1 h after the last administration, all mice except those in the normal group are intragastrically administrated with a single dose of 50% EtOH ([…]). After 16 h, the eyeball of the mice in each group is enucleated to collect blood, which is centrifuged at 3000 rpm for 15 min to separate serum. ALT and AST activities are tested respectively (Nanjing Jiancheng Bioengineering Institute). The left lobe of liver is taken to prepare 10% homogenate using physiological saline, MDA (Nanjing Jiancheng Bioengineering Institute) content is determined. Experimental data are expressed as average±standard deviation (X±s), analyzed with SPSS 11.5 statistic software, with P<0.05 meaning there is a significant difference. Other agents, drugs and experimental methods are the same as in EXAMPLE 1.

Where [3] appears, read: dosage groups not distinguished, P<0.01.

Consider `C=C1CCC2C(C)(CO)C(O)CCC2(C)C1C=CC1=CC(=Cc2ccc(Cl)cc2)OC1=O` (stereo not drawn) [Compound A], for which, in series [1] (BVDV in MDBK cells), the “antiviral effect compared with AD” value is “better antiviral effect than AD” and the “pharmaceutical effect against cytopathy caused by virus compared with ribavirin” value was “better than ribavirin”. Besides, in series [1] (MDBK cells, BVDV-AV69, TC50 from MTT, IC50 from CPE), the “TI value (therapy index, TC50/IC50)” value is given as more than 127.6. Also, in series [2] (setting [3]), the “ALT activity in serum vs model group” value was “effectively suppress”, the “AST activity in serum vs model group” value was “effectively suppress” and the “MDA content in liver homogenate vs model group” value is “effectively reduce the MDA content”. Also, the “AST activity decreasing magnitude compared with AD group” value in series [2] (high dosage 0.88 mmol/kg, P<0.01) is reported as “notably larger”. Besides, in series [2] (high dosage 0.88 mmol/kg, P<0.01 (A), P<0.05 (B)), the “ALT activity decreasing magnitude compared with AD group” value is listed as “notably larger”. Moreover, the “protective effect against liver damage induced by ethanol (summary)” value in series [2] (mice, intragastric, 3 days) is reported as “protective effect”.
